Measured values from patent US20120196858A1, “METHOD OF PROMOTING APOPTOSIS AND INHIBITING METASTASIS” (Poniard Pharmaceuticals ,Inc., priority 2009, published 2012).

Tests used:
[1] = molecular target: T1, FAK Tyr-397 phosphorylation (Mus musculus, UniProt P34152); assay: Anti-phospho-specific immunoblotting of FAK pY397 in 4T1 cells; format: cell-based, murine
T1 construct: endogenous in cells; host or cells: 4T1 murine mammary carcinoma cells
Description: (§1) Immunoblotting: Protein extracts of cells were made using lysis buffer containing 1% Triton X-100, 1% sodium deoxycholate, and 0.1% SDS and were separated by 4-12% SDS-PAGE (sodium dodecyl sulfate polyacrylamide gel electrophoresis) and sequential immunoblotting performed as described in Mitra S K, Lim S T, Chi A, Schlaepfer D D. Intrinsic focal adhesion kinase activity controls orthotopic breast carcinoma metastasis via the regulation of urokinase plasminogen activator expression in a syngeneic tumor model. Oncogene 2006; 25:4429-40. Relative expression levels and phospho-specific antibody reactivity were measured by densitometry analyses of blots using Image J (version 1.42q). Inhibition of FAK and p130Cas tyrosine phosphorylation was quantified by calculating the ratio of pY397 FAK protein to total FAK. Similar analyses were performed for p130Cas using pY410 p130Cas and total p130Cas blot data.

[2] = molecular target: T2, FAK Tyr-397 phosphorylation (Homo sapiens, UniProt Q05397); assay: Anti-phospho-specific immunoblotting of FAK Tyr-397 in human breast carcinoma cells; format: cell-based
T2 construct: endogenous in cells; host or cells: MDA-MB-231 human breast carcinoma cells
Description: as §1

[3] = molecular target: T3, c-Src (pY416 Src) (Mus musculus, UniProt P05480); assay: Phospho-specific immunoblotting of Src pY416 in 4T1 cells; format: cell-based, murine
T3 construct: endogenous in cells; host or cells: 4T1 murine mammary carcinoma cells

[4] = test system: 4T1 cells; assay: Millicell chamber motility assay (fibronectin, serum chemotaxis); format: cell-based, murine; conditions: Mus musculus, 4 h, read-out: maximal inhibition of cell movement
Protocol: Cell migration assays: Serum-stimulated chemotaxis using Millicell (12 mm diameter with 8 μm pores; Millipore) chambers were performed as described previously^49. Both sides of membrane were coated with fibronectin (10 μg/ml) and chemotaxis was stimulated by addition of 10% FBS to the lower chamber. Data points represent cell counts (9 fields) from three migration chambers from at least two independent experiments. For scratch-wound closure motility assays, cells were seeded onto fibronectin-coated (10 μg/ml) glass bottom 12 well plates (MatTek) and serum starved (0.5% FBS) for 16 h. Cells were wounded with a pipette tip, washed with phosphate-buffered salin (PBS), and replenished with 10% FBS media with or without FAK inhibitor (1 μM). Time-lapse series was obtained by acquiring images at 10 min intervals for up to 22 h, at 37° C. with humidity and CO2 regulation using a 10× objective on an automated stage (Olympus IX81). Cell trajectories and distance traveled were measured by tracking nucleus position over time using Image J.

[5] = test system: 4T1 cells; assay: Cell cycle analysis by propidium iodide staining and flow cytometry; format: cell-based, murine; conditions: 1.0 μM
Protocol: Cell pellets were resuspended in 300 p. 1 of PBS containing propidium iodide (PI) (10 μg/ml), DNAse-free RNAse (100 μg/ml, Qiagen), and then incubated at 37° C. with agitation for 1 h. Samples were analyzed by flow cytometry (FACSCalibur, Becton-Dickinson) and cell cycle analyses were performed by ModFit LT3.2 software (Verity software house). Hypodiploid DNA content as a measure of cell apoptosis was detected by PI staining as described ^29. […] Quadrant gates were positioned based on cell autofluorescence (negative) staurosporine-treated (positive) controls. Apoptosis was calculated to be the percent of annexin V-positive cells. In the soft agar assays, apoptosis was quantified by visual inspection of at least 200 cells and was defined as the appearance of membrane blebbing or cell shrinkage. Apoptosis was also detected by appearance of cleaved caspase-3 antibody reactivity in protein lysates by immunoblotting.

[6] = test system: ID8 ovarian carcinoma cells; assay: ID8 suspended spheroid cell growth; format: cell-based, murine
Protocol: Anchorage-dependent, spheroid, and soft agar cell growth assays: Cells (2×10^5) were plated per 35 mm well under adherent (tissue culture-treated) and non-adherent conditions (poly-HEMA-coated) in 6-well plates (Costar) in growth media. […] For spheroid area determination, cells were imaged after 72 h in phase contrast using an Olympus IX51 microscope. Area was calculated using Image J software (version 1.43). For soft agar assays, 48-well plates were coated with a 1:4 mix of 2% agar (EM Science) in 0.2 ml growth media (bottom layer). 5×10^4 cells were plated per well (in triplicate) in a mixture of 0.3% agar in 0.2 ml growth media (top layer). […] After 10 days, colonies were imaged in phase contrast, enumerated by counting 9 fields (3 fields per well), and total area determined using Image J. For all analyses, experimental points were performed in triplicate and were experiments were repeated at least two times.

[7] = test system: ID8 ovarian carcinoma cells; assay: Intraperitoneal ID8 ovarian carcinoma tumor growth in C57Bl6 mice; format: in vivo, C57B16 mice
Protocol: Mouse tumor studies: Six to eight week old female C57B16 and BALB/c mice were obtained from Harlan Laboratories (Indianapolis, Ind.) and housed in pathogen-free conditions, according to the guidelines of the Association for the Assessment and Accreditation for Laboratory Animal Care, International. All in vivo studies were carried out under an approved institutional experimental animal care and use protocol. Growing tumor cells were harvested by limited trypsinization, washed in PBS, and counted using a ViCell XR (Beckman) prior to injection. Cell viability as measured by trypan blue exclusion was >95%. For subcutaneous tumor growth, 1×10^6 mCherry-labeled 4T1 cells in 100 μl PBS were injected into the hindflank of Balb/C mice. […] Control animals received PEG400:PBS injections and at 13 days, tumors were imaged in situ using an Olympus OV100 Intravital Fluorescence Molecular Imaging System, tumors were excised and weighed, half was frozen in OCT, and half was solubilized in protein lysis buffer for FAK phosphorylation analyses. For ID8 ovarian carcinoma tumor growth, 0.8 mL of 1×10^7 ID8 cells in PBS was intraperitoneal injected into C57B16 mice. […] Administration continued ad libitum for 30 days after which mice were euthanized, ascites fluid collected, cells obtained by centrifugation (2000 rpm for 5 min), cell volume measured by pipet, and then solubilized in protein lysis buffer for immunoblotting analyses.

[8] = test system: MDA-MB-231 tumors; assay: Orthotopic MDA-MB-231 breast carcinoma model; format: in vivo, NOD/SCID mice; conditions: 0.5 mg/ml ad libitum
Protocol: Orthotopic breast cancer models: One million 4T1 or MDA-MB-231 cells in 10 μl PBS were injected into the T4 mammary fat pad of 8-10 week old mice using a Hamilton syringe. […] Tumors were measured every 3-4 days with digital vernier calipers and tumor volume (mm^3) was calculated using the formula: V=axb^2/2 (a=length, mm; b=width, m) Body weight was measured weekly to assess toxicity. Lungs, spleen, and primary tumors were surgically removed and weighed. Tumors sections were homogenized in protein lysis buffer for immunoblotting or placed in Optimal Cutting Temperature (OCT) compound (Tissue Tek), frozen in liquid nitrogen, thin sectioned (7 μM) using a cryostat (Leica 3050S), and mounted onto glass slides.
Metastatic tumor burden (number of metastatic lesion or mean pixel volume) was determined and groups (Negligible, Moderate, and High) were separated based upon numbers distribution. After imaging, lungs were fixed in Bouin's solution (Sigma), paraffin embedded, sectioned, and stained with hematoxylin and eosin (H&E) for histological evaluation. Images were acquired using a differential interference contrast-equipped Olympus IX81 inverted microscope and an Olympus DP71 digital color camera using Slidebook (v5.0) software. For MDA-MB-231 tumor metastasis studies, lungs were inflated by intratracheal injection of a 1:1 solution of OCT in sterile water using a 25 gauge needle. Lungs were resected, embedded in OCT, and frozen in liquid nitrogen.

[9] = 0.5 mg/ml ad libitum, 30 treatment days

T1 sequence (P34152 whole entry): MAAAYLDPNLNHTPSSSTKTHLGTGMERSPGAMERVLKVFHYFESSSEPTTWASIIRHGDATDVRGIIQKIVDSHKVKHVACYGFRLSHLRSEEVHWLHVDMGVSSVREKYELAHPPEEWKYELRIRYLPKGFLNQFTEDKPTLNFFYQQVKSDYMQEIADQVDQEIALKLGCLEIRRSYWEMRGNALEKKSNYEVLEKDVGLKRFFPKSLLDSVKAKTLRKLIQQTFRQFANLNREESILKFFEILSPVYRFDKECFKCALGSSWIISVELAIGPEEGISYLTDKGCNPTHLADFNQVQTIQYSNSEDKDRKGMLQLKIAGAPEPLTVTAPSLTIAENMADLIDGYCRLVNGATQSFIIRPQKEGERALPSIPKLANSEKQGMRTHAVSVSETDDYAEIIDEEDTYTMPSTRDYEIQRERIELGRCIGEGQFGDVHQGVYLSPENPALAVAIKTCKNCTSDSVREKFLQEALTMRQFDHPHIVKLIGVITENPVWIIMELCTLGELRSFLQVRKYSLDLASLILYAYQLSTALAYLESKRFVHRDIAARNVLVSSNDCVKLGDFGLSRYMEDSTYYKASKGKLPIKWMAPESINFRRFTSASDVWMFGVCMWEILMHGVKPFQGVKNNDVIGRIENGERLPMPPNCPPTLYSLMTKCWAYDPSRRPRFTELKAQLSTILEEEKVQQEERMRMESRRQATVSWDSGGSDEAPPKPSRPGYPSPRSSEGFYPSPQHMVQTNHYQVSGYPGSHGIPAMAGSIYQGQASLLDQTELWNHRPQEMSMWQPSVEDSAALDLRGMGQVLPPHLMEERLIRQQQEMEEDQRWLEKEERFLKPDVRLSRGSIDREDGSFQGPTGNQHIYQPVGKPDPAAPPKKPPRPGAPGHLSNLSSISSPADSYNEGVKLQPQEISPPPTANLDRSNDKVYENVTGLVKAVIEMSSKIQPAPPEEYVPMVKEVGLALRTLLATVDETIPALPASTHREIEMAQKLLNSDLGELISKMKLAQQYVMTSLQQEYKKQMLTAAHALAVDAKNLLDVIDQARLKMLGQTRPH
T2 sequence (Q05397 whole entry): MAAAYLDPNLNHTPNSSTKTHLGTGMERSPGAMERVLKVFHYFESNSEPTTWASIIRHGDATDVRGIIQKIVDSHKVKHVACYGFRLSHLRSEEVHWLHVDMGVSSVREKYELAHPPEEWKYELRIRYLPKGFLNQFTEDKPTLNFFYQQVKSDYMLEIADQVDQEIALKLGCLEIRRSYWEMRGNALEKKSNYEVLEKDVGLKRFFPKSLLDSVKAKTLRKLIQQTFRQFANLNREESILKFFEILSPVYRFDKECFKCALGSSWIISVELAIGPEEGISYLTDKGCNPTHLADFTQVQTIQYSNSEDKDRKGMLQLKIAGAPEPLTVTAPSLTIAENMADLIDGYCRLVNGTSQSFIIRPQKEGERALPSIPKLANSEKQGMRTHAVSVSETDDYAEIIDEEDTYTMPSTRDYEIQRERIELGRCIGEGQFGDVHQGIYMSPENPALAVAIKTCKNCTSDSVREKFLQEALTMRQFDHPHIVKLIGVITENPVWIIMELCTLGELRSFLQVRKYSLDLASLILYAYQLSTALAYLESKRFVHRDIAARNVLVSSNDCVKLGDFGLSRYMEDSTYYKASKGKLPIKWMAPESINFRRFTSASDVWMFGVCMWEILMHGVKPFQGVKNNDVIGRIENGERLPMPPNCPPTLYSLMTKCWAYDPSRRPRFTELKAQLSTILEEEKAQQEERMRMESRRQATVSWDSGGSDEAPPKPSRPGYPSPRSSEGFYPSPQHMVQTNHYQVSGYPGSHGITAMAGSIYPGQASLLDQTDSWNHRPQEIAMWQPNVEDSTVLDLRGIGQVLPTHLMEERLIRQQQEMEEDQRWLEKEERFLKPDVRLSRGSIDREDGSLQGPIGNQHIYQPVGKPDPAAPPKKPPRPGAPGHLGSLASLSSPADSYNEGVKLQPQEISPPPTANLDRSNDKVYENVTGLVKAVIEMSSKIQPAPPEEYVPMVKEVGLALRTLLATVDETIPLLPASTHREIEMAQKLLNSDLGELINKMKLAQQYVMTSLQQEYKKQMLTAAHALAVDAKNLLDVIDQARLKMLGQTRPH

Question: How did the “FAK pY397 phosphorylation in 4T1 spheroids” value ([1]; 0.1 μM, 3D spheroids) turn out when `CNC(=O)c1ccccc1Nc1cc(Nc2ccc(N3CCOCC3)cc2OC)ncc1C(F)(F)F` [PND-1186] was run?
Answer: potently inhibited

Question: What about the “FAK pY397 phosphorylation, adherent and suspended cells” value ([1]; 0.1 μM, 24 h) of the same compound?
Answer: sufficient to inhibit FAK pY397 phosphorylation

Question: And the “maximal reduction of FAK pY397 phosphorylation” value ([1]; 4T1 cells, 0.1 to 1.0 μM, 1 h)?
Answer: ~80%

Question: What about the IC50 [2] of the same compound?
Answer: ~100 nM

Question: What about the “Src pY416 and Src expression levels in spheroids” value ([3]; PND-1186-treated 3D spheroids) of the same compound?
Answer: no change

Question: What about the “Src pY416 phosphorylation” value ([3]; adherent 4T1 cells, 1 h, PND-1186 to 1 μM) of the same compound?
Answer: did not affect c-Src activity

Question: And the inhibition at 0.4 µM [4]?
Answer: 50 to 60%

Question: And the “cell cycle distribution, suspended cells” value [5]?
Answer: did not reveal cell cycle differences

Question: And the “cell cycle distribution, adherent cells” value ([5]; 72 h, vs DMSO)?
Answer: slight accumulation in the S and G2/M phases

Question: What about the “sub-diploid (1N) cells, suspended cells” value ([5]; PI staining) of the same compound?
Answer: accumulation of sub-diploid (1N) cells

Question: What about the ID8 cell number ([6]; 0.1, 0.4, and 1.0 μM, 72 h, suspended spheroids) of the same compound?
Answer: significantly inhibited ID8 cell number

Question: What about the “viable ID8 cells” value ([6]; after 15 days) of the same compound?
Answer: dramatic reduction in viable cells

Question: What about the “inhibition of FAK pY397 in ascites cells” value ([7]; 0.5 mg/ml ad libitum vs 5% sucrose) of the same compound?
Answer: > 2 fold

Question: And the ascites-associated cells [7, 9]?
Answer: lower number of ascites-associated cells

Question: And the swollen abdomens [7, 9]?
Answer: did not exhibit swollen abdomens

Question: What about the “tumor nodules within the peritoneal space” value ([7]; 0.5 mg/ml ad libitum, dsRed imaging) of the same compound?
Answer: significantly fewer tumor nodules

Question: And the “adverse effects and body weight” value ([7]; 0.5 mg/ml in 5% sucrose ad libitum)?
Answer: No adverse effects and no body weight loss

Question: And the “tumor burden, caspase 3 cleavage, tumor TUNEL staining” value ([7]; 0.5 mg/ml in drinking water of mice, tumor model not named at the place)?
Answer: decreased tumor burden, increased caspase 3 cleavage, and elevated tumor TUNEL staining

Question: And the “FAK pY397 phosphorylation in MDA-MB-231 tumors” value [8]?
Answer: significantly reduce FAK pY397 phosphorylation

Question: And the “reduction of number of metastatic lung lesions” value [8]?
Answer: > 3.5 fold

Question: And the “tumor size by Day 27 (caliper)” value ([8]; 15 days of administration)?
Answer: control tumors were significantly larger

Question: What about the “decrease in final tumor weight” value ([8]; Day 70) of the same compound?
Answer: > 5 fold
